Target: T1, ErbB2 (Homo sapiens, UniProt P04626)
T1 construct: expressed in transfected cells; host or cells: MCF10A human mammary epithelial cells stably expressing HER2 (MCF10A.HER2; Ueda et al., 2004)
Experiment: EphA2 and ErbB2 phosphorylation in MCF10A cells overexpressing HER2 after ErbB2 kinase inhibitor (immunoprecipitation/immunoblot)
Assay type: cell-based
Settings: 10 mg/ml AG825 for 24 or 48 hours
Description: For Ras and Rho/Rac pulldown assays, tumor tissue was collected, weighed, mechanically homogenized in phosphate buffered saline (PBS) pelleted, and resuspended in manufacturer recommended assay buffer (Upstate Biotechnology). Approximately […] tumor lysate was used per assay. Ras assays were performed using Raf-1 Ras binding domain-GST assay reagent (Upstate Biotechnology) as per manufacturer's protocol. Rho assays were performed using Rhotekin binding domain-GST reagents as previously described (Fang et al., 2005). For some co-immunoprecipitation assays, COST cells were co-transfected with […] each of myc-tagged erbB2 (pcDNA3-erbB2) and ephA2 (pcDNA3-EphA2) using Lipofectamine 2000 (Invitrogen). Cells were lysed in 1% NP-40 Buffer (10 mM Tris-HCl pH 7.5, 150 mM NaCl, 2 mM EDTA, 1% NP-40 plus 50 mM protease inhibitors). Lysates were used for immunoprecipitation with an anti-myc (Sigma-Aldrich) and anti-EphA2 antibodies (Santa Cruz, sc-924) antibodies. Immune complexes were resolved on SDS-PAGE and western blotted using anti-EphA2 and anti-myc antibodies. EphA2 was immunoprecipitated from MMTV-Neu cells, followed by treatment of half the samples with the 1 mM of the cross-linking agent DTSSP. Immunoprecipitates were subjected to western blot analysis using anti-ErbB2 (Neomarkers, 1:2000). EphA2 and ErbB2 were immunoprecipiated from MCF10A and MCF10A.HER2 cells as described above. […]

T1 sequence (P04626 23-1255): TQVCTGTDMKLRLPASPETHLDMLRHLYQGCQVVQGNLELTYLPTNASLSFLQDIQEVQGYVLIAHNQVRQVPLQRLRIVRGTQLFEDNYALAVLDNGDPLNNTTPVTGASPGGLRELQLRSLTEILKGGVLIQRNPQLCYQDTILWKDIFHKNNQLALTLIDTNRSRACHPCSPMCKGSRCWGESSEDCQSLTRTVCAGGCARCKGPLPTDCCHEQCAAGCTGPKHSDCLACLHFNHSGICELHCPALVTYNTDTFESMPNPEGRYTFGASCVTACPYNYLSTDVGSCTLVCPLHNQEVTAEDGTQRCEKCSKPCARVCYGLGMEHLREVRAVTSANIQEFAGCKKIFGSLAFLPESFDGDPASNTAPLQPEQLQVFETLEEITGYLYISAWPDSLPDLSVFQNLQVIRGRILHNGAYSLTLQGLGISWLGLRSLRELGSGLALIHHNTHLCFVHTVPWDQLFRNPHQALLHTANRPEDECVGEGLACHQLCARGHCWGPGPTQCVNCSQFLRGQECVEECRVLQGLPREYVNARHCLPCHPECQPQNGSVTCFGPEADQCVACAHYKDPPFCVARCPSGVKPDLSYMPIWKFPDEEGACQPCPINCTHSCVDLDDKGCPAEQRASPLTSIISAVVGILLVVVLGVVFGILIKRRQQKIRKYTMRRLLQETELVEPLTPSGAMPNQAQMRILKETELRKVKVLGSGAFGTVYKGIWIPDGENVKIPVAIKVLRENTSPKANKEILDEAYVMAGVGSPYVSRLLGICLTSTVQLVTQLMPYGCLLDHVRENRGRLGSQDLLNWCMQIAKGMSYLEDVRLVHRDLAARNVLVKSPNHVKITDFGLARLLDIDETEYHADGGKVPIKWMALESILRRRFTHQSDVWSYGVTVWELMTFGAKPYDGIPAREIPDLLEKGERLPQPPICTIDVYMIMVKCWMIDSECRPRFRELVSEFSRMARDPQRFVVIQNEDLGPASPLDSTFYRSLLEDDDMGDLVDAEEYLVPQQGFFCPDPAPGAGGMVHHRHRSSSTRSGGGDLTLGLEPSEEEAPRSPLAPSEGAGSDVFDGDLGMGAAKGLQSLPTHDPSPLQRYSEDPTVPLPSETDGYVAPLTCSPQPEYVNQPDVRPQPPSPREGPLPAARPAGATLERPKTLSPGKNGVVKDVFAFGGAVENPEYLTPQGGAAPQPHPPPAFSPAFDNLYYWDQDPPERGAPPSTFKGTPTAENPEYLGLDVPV

COc1cc(/C=C(\C#N)C(N)=O)cc(CSc2nc3ccccc3s2)c1O [AG825]
EphA2 phosphorylation: reduced
ErbB2 phosphorylation: reduced
